Nine compounds from patent US20220033397A1, “PHARMACEUTICAL COMPOUNDS AND THEIR USE AS INHIBITORS OF UBIQUITIN SPECIFIC PROTEASE 19 (USP19)” (ALMAC DISCOVERY LIMITED, priority 2018, published 2022) can be followed below.

The target of this assay is T1, Full-length USP19 (Homo sapiens, UniProt O94966).
T1 construct: Full-length USP19 was purchased from Boston Biochem (E-576); purchased Boston Biochem E-576
T1 sequence (O94966 1-1318): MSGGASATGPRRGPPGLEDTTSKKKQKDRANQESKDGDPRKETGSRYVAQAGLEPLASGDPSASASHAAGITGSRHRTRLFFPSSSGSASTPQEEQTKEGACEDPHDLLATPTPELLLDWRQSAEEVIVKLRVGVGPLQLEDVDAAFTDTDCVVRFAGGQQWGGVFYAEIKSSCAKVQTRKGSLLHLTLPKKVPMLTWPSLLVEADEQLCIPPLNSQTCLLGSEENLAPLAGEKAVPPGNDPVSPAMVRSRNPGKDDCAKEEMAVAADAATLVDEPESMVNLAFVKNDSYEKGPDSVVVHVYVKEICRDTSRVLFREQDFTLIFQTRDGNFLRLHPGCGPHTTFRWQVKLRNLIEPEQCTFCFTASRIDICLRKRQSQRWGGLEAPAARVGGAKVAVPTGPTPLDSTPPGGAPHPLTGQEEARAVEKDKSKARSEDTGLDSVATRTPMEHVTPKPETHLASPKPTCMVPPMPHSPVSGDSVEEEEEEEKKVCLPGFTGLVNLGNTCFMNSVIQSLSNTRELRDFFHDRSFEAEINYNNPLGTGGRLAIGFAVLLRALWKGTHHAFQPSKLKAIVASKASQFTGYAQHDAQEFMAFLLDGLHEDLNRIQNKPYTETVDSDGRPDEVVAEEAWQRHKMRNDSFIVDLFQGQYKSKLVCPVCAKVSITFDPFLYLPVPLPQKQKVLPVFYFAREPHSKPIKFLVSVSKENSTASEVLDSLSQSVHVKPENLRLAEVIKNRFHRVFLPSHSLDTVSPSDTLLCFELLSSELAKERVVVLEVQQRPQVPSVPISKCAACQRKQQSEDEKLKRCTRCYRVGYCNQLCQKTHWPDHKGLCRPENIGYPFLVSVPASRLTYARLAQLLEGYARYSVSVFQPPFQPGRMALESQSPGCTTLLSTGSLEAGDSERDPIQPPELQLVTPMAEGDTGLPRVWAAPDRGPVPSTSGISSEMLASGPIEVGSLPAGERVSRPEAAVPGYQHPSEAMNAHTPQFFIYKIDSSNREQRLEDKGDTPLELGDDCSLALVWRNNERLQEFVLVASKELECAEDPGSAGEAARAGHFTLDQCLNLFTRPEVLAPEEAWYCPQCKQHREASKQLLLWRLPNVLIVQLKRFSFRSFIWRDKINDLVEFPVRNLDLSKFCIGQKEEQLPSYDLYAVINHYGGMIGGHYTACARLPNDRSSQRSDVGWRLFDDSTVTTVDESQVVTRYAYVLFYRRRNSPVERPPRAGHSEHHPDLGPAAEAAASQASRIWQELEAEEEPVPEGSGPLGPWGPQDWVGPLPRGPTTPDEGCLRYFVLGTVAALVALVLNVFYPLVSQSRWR
Put plainly: USP19 fluorescence polarisation (FP) homogeneous assay with Ubiquitin-Lys-TAMRA substrate. In kind it is biochemical. Particulars: 2.5 nM USP19, 30 min pre-incubation, average of at least two duplicate experiments. Put shortly:
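Full-length USP19 preincubated 30 min at RT with inhibitor (200 μM to 2 μM series, 8–18 points) before adding 500 nM Ubiquitin-Lys-TAMRA substrate.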
In general terms: Fluorescence polarisation rises when a labelled molecule tumbles more slowly, as on binding a larger partner.
Regarding `Cn1nccc1-c1ccn(C[C@]2(O)CCN(C(=O)N3CCNC[C@H]3c3ccccc3)CC23CCCC3)c(=O)c1` [Example 328, 1-(((S)-10-Hydroxy-7-((R)-2-phenylpiperazine-1-carbonyl)-7-azaspiro[4.5]decan-10-yl)methyl)-4-(1-methyl-1H-pyrazol-5-yl)pyridin-2(1H)-one], the IC50 (commonly the midpoint of a concentration-inhibition curve) is < 500 nM. Consider `N#CCc1ccc(CNC(=O)N2CCC(O)(Cn3cnc(-c4ccccc4)cc3=O)C3(CCCC3)C2)cc1` (stereo not drawn) [Example 258, N-(4-(Cyanomethyl)benzyl)-10-hydroxy-10-((6-oxo-4-phenylpyrimidin-1(6H)-yl)methyl)-7-azaspiro[4.5]decane-7-carboxamide], for which the IC50 was 5000 to 50000 nM. The value for `O=C(N1CCC(C(F)F)C1)N1CCC(O)(Cn2cnc(-c3ccccc3)cc2=O)C2(CCCC2)C1` (stereo not drawn) [Example 262, 3-((7-(3-(Difluoromethyl)pyrrolidine-1-carbonyl)-10-hydroxy-7-azaspiro[4.5]decan-10-yl)methyl)-6-phenylpyrimidin-4(3H)-one] was 5000 to 50000 nM.

Regarding `C[C@H](CC1CCCCC1)C(=O)N1CCC(O)(Cn2cc(C(=O)O)ncc2=O)C2(CCCC2)C1` (stereo partly drawn) [Example 9, 4-((7-((R)-3-Cyclohexyl-2-methylpropanoyl)-10-hydroxy-7-azaspiro[4.5]decan-10-yl)methyl)-5-oxo-4,5-dihydropyrazine-2-carboxylic acid], the IC50 fell in the range of 500 to 5000 nM. With `COc1ccc(F)cc1-c1cc(=O)n(C[C@]2(O)CCN(C(=O)N3CCNC[C@H]3c3ccccc3)CC23CCCC3)cn1` [Example 384, 6-(5-Fluoro-2-methoxyphenyl)-3-(((S)-10-hydroxy-7-((R)-2-phenylpipera-zine-1-carbonyl)-7-azaspiro[4.5]decan-10-yl)methyl)pyrimi-din-4(3H)-one], the 50% inhibitory concentration (IC50) was < 500 nM. The same measure for `COc1c(F)cccc1-c1cc(=O)n(C[C@]2(O)CCN(C(=O)N3CCNC[C@H]3c3ccccc3)CC23CCCC3)cn1` [Example 383, 6-(3-Fluoro-2-methoxyphenyl)-3-(((S)-10-hydroxy-7-((R)-2-phenyl-piperazine-1-carbonyl)-7-aza-spiro[4.5]decan-10-yl)methyl)pyrimidin-4(3H)-one]: < 500 nM. Consider `O=C(N1CC[C@@](O)(Cn2cnc(N3CCC(F)(F)CC3)cc2=O)C2(CCCC2)C1)N1CCNC[C@H]1c1ccccc1` [Example 351, 6-(4,4-Difluoro-piperidin-1-yl)-3-(((S)-10-hydroxy-7-((R)-2-phenylpiperazine-1-carbonyl)-7-aza-spiro[4.5]decan-10-yl)methyl)pyrimidin-4(3H)-one], for which the IC50 was < 500 nM.

As for `O=C(N1CC[C@@](O)(Cn2cnc(-c3ccccc3)cc2=O)C2(CCCC2)C1)N1CCOC[C@H]1c1ccc(F)cc1` [Example 228, 3-(((S)-7-((R)-3-(4-Fluorophenyl)morpholine-4-carbonyl)-10-hydroxy-7-azaspiro[4.5]decan-10-yl)methyl)-6-phenylpyrimidin-4(3H)-one], the IC50 was < 500 nM. The same measure for `O=C(N1CC[C@@](O)(Cn2cnc(-c3ccccc3)cc2=O)C2(CCCC2)C1)N1CCN(CC(F)(F)F)C[C@H]1c1ccccc1` [Example 323, 3-(((S)-10-Hydroxy-7-((R)-2-phenyl-4-(2,2,2-trifluoroethyl)piperazine-1-carbonyl)-7-azaspiro[4.5]decan-10-yl)methyl)-6-phenylpyrimidin-4(3H)-one]: < 500 nM.
